Source: ChEMBL document CHEMBL1133808, “The discovery of sulfonylated dipeptides as potent VLA-4 antagonists” (Bioorg Med Chem Lett, 2001)

How the values were obtained:
[1] = biological target: T1, Integrin alpha-4/beta-1 (Homo sapiens, UniProt P05556+P13612); experiment: Inhibition of [125I]-VCAM-Ig binding to VLA-4 integrin of human Jurkat cells; type: cell-based
[2] = biological target: T2, Integrin alpha-4/beta-7 (Homo sapiens, UniProt P13612+P26010); experiment: Inhibition of [125I]MAdCAM-Ig binding to alpha4-beta7 integrin of human RPMI-8866 cells; type: cell-based
T2 sequence (P13612 whole entry): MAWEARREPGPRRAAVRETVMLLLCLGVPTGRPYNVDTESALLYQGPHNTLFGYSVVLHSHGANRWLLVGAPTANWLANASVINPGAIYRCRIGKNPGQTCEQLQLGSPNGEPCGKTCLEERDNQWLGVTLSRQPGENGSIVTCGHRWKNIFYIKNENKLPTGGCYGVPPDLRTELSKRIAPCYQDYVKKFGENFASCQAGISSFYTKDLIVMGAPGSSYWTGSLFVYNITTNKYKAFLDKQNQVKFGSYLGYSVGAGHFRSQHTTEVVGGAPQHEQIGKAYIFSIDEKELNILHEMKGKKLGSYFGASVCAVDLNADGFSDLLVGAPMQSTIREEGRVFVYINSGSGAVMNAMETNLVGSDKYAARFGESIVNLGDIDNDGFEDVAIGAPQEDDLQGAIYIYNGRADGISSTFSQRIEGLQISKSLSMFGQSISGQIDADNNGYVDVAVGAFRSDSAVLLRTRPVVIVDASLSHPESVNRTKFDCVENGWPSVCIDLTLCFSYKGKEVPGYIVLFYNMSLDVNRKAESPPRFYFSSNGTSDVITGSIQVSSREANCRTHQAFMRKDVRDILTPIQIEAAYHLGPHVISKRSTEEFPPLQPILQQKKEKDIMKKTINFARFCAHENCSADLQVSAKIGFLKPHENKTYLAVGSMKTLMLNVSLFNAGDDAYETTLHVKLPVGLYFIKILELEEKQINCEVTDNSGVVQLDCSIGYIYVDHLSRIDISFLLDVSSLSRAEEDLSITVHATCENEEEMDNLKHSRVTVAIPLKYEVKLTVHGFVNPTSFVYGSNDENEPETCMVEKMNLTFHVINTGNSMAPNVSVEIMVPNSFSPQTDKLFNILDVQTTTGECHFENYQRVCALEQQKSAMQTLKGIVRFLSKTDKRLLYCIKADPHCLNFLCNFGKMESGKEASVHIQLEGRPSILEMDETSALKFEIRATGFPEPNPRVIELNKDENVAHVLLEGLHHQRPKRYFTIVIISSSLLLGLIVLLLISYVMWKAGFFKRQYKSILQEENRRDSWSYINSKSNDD
T2 sequence (P26010 whole entry): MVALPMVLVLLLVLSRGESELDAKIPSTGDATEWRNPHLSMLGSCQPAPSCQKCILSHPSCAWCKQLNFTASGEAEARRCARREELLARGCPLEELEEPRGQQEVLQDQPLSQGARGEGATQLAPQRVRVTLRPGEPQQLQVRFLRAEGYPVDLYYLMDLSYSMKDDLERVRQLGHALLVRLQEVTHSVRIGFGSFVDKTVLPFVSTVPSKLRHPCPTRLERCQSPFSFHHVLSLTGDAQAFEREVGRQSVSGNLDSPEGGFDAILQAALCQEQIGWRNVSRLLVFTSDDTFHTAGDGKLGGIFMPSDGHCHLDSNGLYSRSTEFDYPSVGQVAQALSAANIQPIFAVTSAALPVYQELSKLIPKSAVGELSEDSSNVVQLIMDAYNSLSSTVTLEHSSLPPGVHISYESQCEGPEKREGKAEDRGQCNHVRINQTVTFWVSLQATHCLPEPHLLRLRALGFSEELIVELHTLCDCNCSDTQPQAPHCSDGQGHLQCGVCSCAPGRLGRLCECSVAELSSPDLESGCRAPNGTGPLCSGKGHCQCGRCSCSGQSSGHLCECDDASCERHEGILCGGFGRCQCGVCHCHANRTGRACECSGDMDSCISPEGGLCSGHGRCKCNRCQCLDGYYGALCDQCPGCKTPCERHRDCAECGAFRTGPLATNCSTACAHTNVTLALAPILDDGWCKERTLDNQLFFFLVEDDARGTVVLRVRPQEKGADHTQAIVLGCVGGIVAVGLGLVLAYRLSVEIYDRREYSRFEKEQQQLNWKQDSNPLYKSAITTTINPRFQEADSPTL

[3] = biological target: T1, Integrin alpha-4/beta-1; experiment: Antagonistic activity against VLA-4 integrin of human jurkat cells using [125I]VCAM-Ig as radioligand; type: functional, cell-based
[4] = Plasma clearance in Sprague-Dawley rats; type: ADME, organism-based; conditions: rat, read-out: Clp
[5] = Plasma half-life in Sprague-Dawley rats; type: ADME, organism-based; conditions: rat
[6] = biological target: T1, Integrin alpha-4/beta-1; experiment: Inhibition of [125I]VCAM-Ig binding to VLA-4 integrin of human Jurkat cells; type: cell-based
[7] = Oral bioavailability in rat (Sprague-Dawley) (dose 1 mg/kg i.v.); type: ADME, organism-based; conditions: in vivo
[8] = Oral bioavailability in rat (Sprague-Dawley) (dose 2 mg/kg); type: ADME, organism-based; conditions: in vivo
[9] = Oral bioavailability in Sprague-Dawley rats; type: ADME, organism-based; conditions: rat, in vivo
[10] = Compound was tested for protein binding in human plasma; type: ADME, cell-free; conditions: read-out: Protein binding (converted)
[11] = Plasma clearance in rhesus monkey; type: ADME, organism-based; conditions: cercopithecidae, read-out: Clp
[12] = Plasma half-life in Beagle dogs; type: ADME, organism-based, Canis lupus familiaris; conditions: dog
[13] = biological target: T2, Integrin alpha-4/beta-7; experiment: Inhibition of [125I]VCAM-Ig binding to alpha4-beta7 integrin of human RPMI-8866 cells; type: cell-based
[14] = Plasma clearance in Beagle dogs; type: ADME, organism-based, Canis lupus familiaris; conditions: dog, read-out: Clp
[15] = Compound was tested for protein binding in rat plasma; type: ADME, organism-based; conditions: read-out: Protein binding (converted)
[16] = Plasma half-life in rhesus monkey; conditions: cercopithecidae

T1 sequence (P05556 whole entry, one chain of several): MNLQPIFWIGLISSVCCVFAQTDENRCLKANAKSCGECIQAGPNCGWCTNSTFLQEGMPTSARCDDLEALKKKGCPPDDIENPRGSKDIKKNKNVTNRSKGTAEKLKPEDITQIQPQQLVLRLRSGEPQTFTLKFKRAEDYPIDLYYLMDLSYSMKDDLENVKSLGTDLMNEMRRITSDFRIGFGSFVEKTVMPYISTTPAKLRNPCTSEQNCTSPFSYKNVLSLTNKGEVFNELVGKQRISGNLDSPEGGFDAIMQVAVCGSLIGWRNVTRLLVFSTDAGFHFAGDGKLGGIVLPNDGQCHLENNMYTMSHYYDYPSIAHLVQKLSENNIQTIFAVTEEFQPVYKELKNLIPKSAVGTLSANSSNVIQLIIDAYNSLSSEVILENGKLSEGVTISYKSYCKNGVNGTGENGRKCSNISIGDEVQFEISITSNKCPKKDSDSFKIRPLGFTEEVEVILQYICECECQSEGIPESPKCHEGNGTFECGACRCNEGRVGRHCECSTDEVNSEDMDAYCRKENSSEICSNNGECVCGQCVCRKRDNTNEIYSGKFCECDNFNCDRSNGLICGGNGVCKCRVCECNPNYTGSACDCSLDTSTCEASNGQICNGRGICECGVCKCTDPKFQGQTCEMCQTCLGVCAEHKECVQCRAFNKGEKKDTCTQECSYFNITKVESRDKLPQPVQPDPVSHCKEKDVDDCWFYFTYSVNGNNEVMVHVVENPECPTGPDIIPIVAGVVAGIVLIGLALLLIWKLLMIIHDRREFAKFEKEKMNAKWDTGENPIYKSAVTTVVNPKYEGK

Row | IC50 [2] [nM] | IC50 [3] [nM] | clearance [4] [mL/min/kg] | half-life [5] [h] | other results | SMILES
1 | – | – | – | – | IC50 [1]: 257 nM | COc1ccc(S(=O)(=O)N2Cc3ccccc3C[C@H]2C(=O)N[C@@H](CCC(=O)O)C(=O)O)cc1OC
2 | 97.1 | 0.15 | 17 | 1 | – | C[C@@]1(C(=O)N[C@@H](Cc2ccc(-c3ccccn3)cc2)C(=O)O)CCCN1S(=O)(=O)c1cc(Cl)cc(Cl)c1
3 | – | – | – | – | IC50 [6]: 58 nM | CCCC[C@H](NC(=O)[C@@H]1Cc2ccccc2CN1S(=O)(=O)c1ccc(OC)c(OC)c1)C(=O)O
4 | – | 0.64 | 39 | – | bioavailability [7]: 3%; bioavailability [8]: 3% | COc1ccccc1-c1ccc(C[C@H](NC(=O)[C@@H]2CCCN2S(=O)(=O)c2cc(Cl)cc(Cl)c2)C(=O)O)cc1
5 | – | 0.5 | 49 | 0.6 | bioavailability [9]: 15%; fraction unbound [10]: 0.004 | O=C(O)[C@H](Cc1ccc2ccccc2c1)NC(=O)[C@@H]1CCCN1S(=O)(=O)c1cc(Cl)cc(Cl)c1
6 | – | 0.92 | – | 1.5 | clearance [11]: 12 mL/min/kg; half-life [12]: 3.4 h; IC50 [13]: 345 nM; clearance [14]: 25 mL/min/kg; fraction unbound [15]: 0.005; fraction unbound [10]: 0.005; half-life [16]: 5.3 h | C[C@@]1(C(=O)N[C@@H](Cc2ccc(-c3ccccc3C#N)cc2)C(=O)O)CCCN1S(=O)(=O)c1cc(Cl)cc(Cl)c1
7 | – | 0.46 | 21 | – | bioavailability [7]: 4%; bioavailability [8]: 4% | N#Cc1ccccc1-c1ccc(C[C@H](NC(=O)[C@@H]2CCCN2S(=O)(=O)c2cc(Cl)cc(Cl)c2)C(=O)O)cc1
8 | 52.5 | 0.11 | 71 | 0.5 | – | COc1cccnc1-c1ccc(C[C@H](NC(=O)[C@]2(C)CCCN2S(=O)(=O)c2cc(Cl)cc(Cl)c2)C(=O)O)cc1
9 | 11.5 | 0.08 | > 100 | 2.2 | IC50 [13]: 2.98 nM | COc1cccc(OC)c1-c1ccc(C[C@H](NC(=O)[C@]2(C)CCCN2S(=O)(=O)c2cc(Cl)cc(Cl)c2)C(=O)O)cc1
